Assay results taken from US4399124A, “Peptides having immunostimulating properties and pharmaceutical compositions containing them” (Institut Pasteur, priority 1979, dated 1983).
Ends that are not written are not given here.

Key:
[1] = test system: Listeria monocytogenes; assay: Multiplication of Listeria monocytogenes in the liver and the spleen of treated mice; format: in vivo; details: 0.5 ml of 10^-4 M i.v. 12 h before i.v. 0.3×10^5 Listeria; NaCl control 7 × 10^7 ± 2.4
Procedure: Mice in four batches of 4 animals were treated under the same conditions as previously. Twelve hours later, the mice were all inoculated, intravenously with 0.3×10^5 Listeria monocytogenes. The table below summarizes the results obtained. Again, the mice treated by the active principles show, in their spleen and especially in their liver, a number of Listeria up to 500 times smaller than in the liver of the control animals.

[2] = test system: Salmonella typhimurium; assay: Blood purging of Salmonella typhimurium in treated mice; format: in vivo; details: 0.5 ml of 10^-4 M i.v. 12 h before i.v. 2×10^7 Salmonella typhimurium; NaCl control 1.20 × 10^6 ± 0.28
Procedure: The increase in the bactericidal power of the macrophages always accompanying an increase in their ingestion capacities, it was sought to measure the latter with Salmonella typhimurium which necessitates for its phagocytosis, contrary to Listeria monocytogenes, opsonizing antibodies or a considerable stimulation of the hepatic macrophages. For this, the mice were treated under the same conditions as in the preceding experiment but were inoculated with 2×10^7 Salmonella typhimurium intravenously.

[3] = test system: Lewis carcinoma (3LL); assay: Resistance of treated mice to Lewis carcinoma (3LL); format: in vivo, C57B1/6 mice; details: product injected 24 hours after inoculation; for Development of the tumor (difference in thickness between tumor paw and contralateral paw): 10^5 3LL cells into plantar pad, measured 9 days later, NaCl control 326 ± 34; for Number of pulmonary metastases: tumor paw amputated, autopsy 20 days after inoculation, NaCl control 5.3 ± 2.7
Procedure: This tumor is maintained in the laboratory as has been described (Fauve, R. M. and Hevin, B., Ann. Immunol. (Inst. Pasteur), 1977, 128C, 923-928). 3LL cells were cultured in Eagle medium supplemented with 15% of foetal calf serum and, after washing and resuspending in Eagle medium without serum, injected in the proportion of 10^5 cells in a volume of […] into the plantar pad of C57B1/6 mice. The difference between the thickness of the paw where the tumor is developed and the contralateral paw enables the development of the tumor to be evaluated.
In all cases, the products tested were injected 24 hours after inoculation of the malignant cells and, 9 days later, after having measured the thickness of the paws, the paw bearing the tumor was amputated and, 11 days later, namely 20 days after inoculation of the tumors, the animals were autopsied and the number of metastatic pumonary nodules counted. The following table summarizes the results obtained.

[4] = test system: guinea pig ileon; details: cited from earlier work

Row | Substance | Number of Listeria monocytogenes in the spleen of mice 48 h after infection [1] | Number of Salmonella typhimurium per ml of blood 2 h after infection [2] | Development of the tumor (difference in thickness between tumor paw and contralateral paw) [3] | Number of pulmonary metastases [3] | Activity with respect to the guinea pig ileon [4]
1 | KPPGF [L5, Lysyl→prolyl→prolyl→glycyl→phenylalanine] | 1.8 × 10^7 ± 0.28 | 9.35 × 10^4 ± 7.9 per ml of blood | 295 ± 25 | 3.7 ± 2 | –
2 | HPPGF [H5, Histidyl→prolyl→prolyl→glycyl→phenylalanine] | 2.4 × 10^7 ± 1.3 | 7.15 × 10^4 ± 0.78 per ml of blood | 272 ± 41 | 0.5 ± 0.10 | –
3 | RPPGF [1-5, Arginyl→prolyl→prolyl→glycyl→phenylalanine] | 3.1 × 10^7 ± 1 | 3.05 × 10^5 ± 1.6 per ml of blood | 284 ± 33 | 0.7 ± 0.11 | totally inactive
